“Also recorded” adds a separate entry of the source.
What was measured:
K105 cells [1] = experiment: Effect on K105 cells already adherent to chondroadherin, light microscopy time study (FIG. 7, 9, 10); type: cell-based, human; conditions: peptide 250 μg/ml added after 30 min adhesion; light microscopy after 1, 3 and 20 hours
Experimental: To test cell binding, the chondrosarcoma cells or bovine chondrocytes were suspended in PBS containing 0.1% BSA, 25 U/ml collagenase and added to the wells (50,000/well), in the absence or presence of various peptide pools or the synthetic peptides (200, 100, 50, 25, 12.5 μg/ml). Non-adherent cells were removed after 1 hour and adhesion was determined by measuring lysosomal N-acetylglucosaminidase (12). Adhesion and spreading was visualized by light microscopy. In the time studies, k105 cells were allowed to adhere for 30 minutes, unbound cells were removed and medium without serum supplemented with or without peptides (250 μg/ml), β1 integrin antibody (clone P4C10, Gibco BRL), EDTA (5 mM) was added. Cell morphology was visualized by light microscopy after 1, 3 and 20 hours.
(§1) Tissue culture dishes were coated with 5 μg/ml chondroadherin expressed in E. coli and blocked for non-specific binding with BSA. The k105 cells were suspended in PBS containing 0.1% BSA, and added to the wells (50,000/well). Nonadherent cells were removed after 30 min by washing, plain medium without serum with or without peptides (250 μg/ml) was added and bound cells were visualized by light microscopy after 1, 3 and 20 hours.
as §1, with “The” for “The k105”, “hours. […] The activity for integrin binding is located in the C-terminal eight residues of the sequence involving the WLEAK (SEQ ID No. 1) sequence.” for “hours.”
as §1, with “washing, peptide, anti β1 antibody, 5 mM EDTA or” for “washing,”, “serum” for “serum with or without peptides (250 μg/ml)”, “1 and” for “1,”, “3” for “3 and 20”

K105 cells [2] = experiment: Adhesion of K105 cells to the coated cell binding peptides (FIG. 8); type: cell-based, human
Experimental: Tissue culture dishes were coated with 33 μg/ml (20 µM) peptide solution. The cells (50,000/well) were suspended in PBS containing 0.1% BSA, 25 U/ml collagenase and added to the wells in the presence or absence of synthetic peptide (250 μg/ml) and allowed to adhere for 1 hour at 37° C. Nonadherent cells were removed by washing. Spreading was visualized by light microscopy.

[3] = Heparin binding on Heparin-Sepharose; conditions: eluted with NaCl (0.5, 1, 2M); Western blot or MALDI-TOF MS
Experimental: Intact recombinant protein (10 μg, EBNA-cell expressed) diluted in PBS was passed over Heparin-Sepharose (Amersham Pharmacia) (1 ml), washed with 20 volumes of PBS and eluted with 2 M NaCl (6×1 ml). Eluted material was precipitated with ethanol, separated by SDS-PAGE (10%) and visualized by western blot (CHAD ab α-80, Larsson et al). The peptide CKFPTKRSKKAGRH (SEQ ID No:7) was diluted in PBS and passed over heparin-sepharose (100 μl), the column was washed with 20 volumes PBS and bound material eluted with 0.5, 1, and 2M NaCl (3 column volumes of each).
Recombinant chondroadherin (10 or 100 μg) expressed in EBNA-cells was passed over Heparin-Sepharose-column (Pharmacia). The column was washed and eluted with 2M NaCl in PBS. Eluted material was separated on SDS-PAGE (10%) and detected by western blot using a chondroadherin antibody (see FIG. 4). The band at 36 kDa represents chondroadherin ant the band at 72 kDa represents a dimer of chondroadherin.
The candidate peptide CKFPTKRSKKAGRH (SEQ ID No: 7) was synthesized. The ability of the peptide to bind heparin was confirmed on heparin-sepharose, where material eluted with 0.5, 1 and 2M NaCl was identified by MALDI-TOF MS (data not shown).

K105 cells [4] = experiment: Adhesion of K105 cells to collagen type II in the presence of synthetic peptide (FIG. 5C-5D); type: cell-based, human; conditions: peptide 250 μg/ml, 1 hour at 37° C.
Experimental: Tissue culture 48-wells dishes (Nunclon, Nunc, Denmark) were coated overnight with 5 μg/ml chondroadherin in 4M Guanidine-HCl, 50 mM sodium acetate, pH 5.8, or for native protein in PBS. Alternatively coating was with 5 μg/ml collagen type II in PBS followed by after-coating with 0.5% BSA in PBS for 3 hours. Collagen type II was isolated from bovine nasal cartilage by pepsin digestion (11). Bacterially expressed chondroadherin was isolated as described above. Recombinant chondroadherin expressed in EBNA cell was cloned and purified as described elsewhere (8).
(§2) To test cell binding, the chondrosarcoma cells or bovine chondrocytes were suspended in PBS containing 0.1% BSA, 25 U/ml collagenase and added to the wells (50,000/well), in the absence or presence of various peptide pools or the synthetic peptides (200, 100, 50, 25, 12.5 μg/ml). Non-adherent cells were removed after 1 hour and adhesion was determined by measuring lysosomal N-acetylglucosaminidase (12). Adhesion and spreading was visualized by light microscopy. […]
Tissue culture dishes were coated with 5 μg/ml chondroadherin expressed in E. coli or collagen type II and blocked for non-specific binding with BSA. […] Spreading was visualized by light microscopy, and adhesion was determined by analyzing lysosomal hexosaminidase. Adhesion is expressed as number of cells where the data represent the average of two wells. […]

bovine chondrocytes = experiment: Adhesion of bovine chondrocytes to human chondroadherin with or without cell binding peptides (FIG. 6); type: cell-based; conditions: peptide 250 μg/ml, 1 hour at 37° C., 100,000 cells/well
Experimental: Bovine chondrocytes were isolated by collagenase (CLS1; Worthington Biochemical Corp., Lakewood, N.J.) digestion of articular cartilage from 4-6 month old calves as described (10). Briefly, cartilage slices were digested for 16 hours with collagenase in EBSS (Earle's balanced salt solution, GIBCO BRL Gaithersburg, Md.). The cells were filtered through a 100 μm nylon filter, washed three times in PBS containing 0.2% BSA (SERVA).
as §2
Tissue culture dishes were coated with 5 μg/ml chondroadherin expressed in E. coli or collagen type II and blocked for non-specific binding with BSA. […] Adhesion was determined by analyzing lysosomal hexosaminidase. Adhesion is expressed as number of cells, 100,000 cells/well was seeded. […]

Substance: H-CKFPTKRSKKAGRH-OH [SEQ ID No. 7]
- spreading, migration and aggregation of k105 cells adherent to chondroadherin (K105 cells [1]): spreading and migration increased
- adhesion and shape of k105 cells plated on the peptide (K105 cells [2]; dishes coated with 33 μg/ml peptide, 1 hour at 37° C.): adhere and spread
- inhibition of k105 adhesion to the coated peptide by the same peptide in solution (K105 cells [2]; peptide in solution 250 μg/ml): unable to inhibit adhesion
- binding to heparin-sepharose [3]: confirmed; also recorded: bind heparin
- k105 cell adhesion to collagen type II in the presence of peptide (K105 cells [4]): not significantly affected
- bovine chondrocyte adhesion to chondroadherin in the presence of peptide (bovine chondrocytes): increased
